Where “and” joins values, the source holds several entries; their conditions need not be identical. Equal values may be shown once. Toxic doses and inconclusive results are not listed.
Test system: P388 leukemia ip, CD2F1 mice, survival T/C
Test: NCI In Vivo Anticancer Drug Screen. Data for tumor model P388 Leukemia (intraperitoneal) in CD2F1 (CDF1) mice
Details: endpoint: median survival time, higher = longer survival
In short: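 Mice carrying the transplanted tumor received test compound or vehicle. Survival was recorded in each group, and the value is the treated-group measurement divided by that of the vehicle-treated control group.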

[1] = dose: 100.0 mg/kg/injection, schedule: Q04DX003 (ip), vehicle: saline sonified
[2] = dose: 200.0 mg/kg/injection, schedule: Q04DX003 (ip), vehicle: saline sonified
[3] = dose: 400.0 mg/kg/injection, schedule: Q04DX003 (ip), vehicle: saline sonified
[4] = dose: 50.0 mg/kg/injection, schedule: Q01DX009 (ip), vehicle: saline
[5] = dose: 100.0 mg/kg/injection, schedule: Q01DX009 (ip), vehicle: saline
[6] = dose: 200.0 mg/kg/injection, schedule: Q01DX009 (ip), vehicle: saline
[7] = dose: 50.0 mg/kg/injection, schedule: Q01DX009 (ip), vehicle: saline with Tween-80
[8] = dose: 60.0 mg/kg/injection, schedule: Q01DX005 (ip), vehicle: saline with Tween-80
[9] = dose: 120.0 mg/kg/injection, schedule: Q01DX005 (ip), vehicle: saline with Tween-80

N#CNc1nc2ccccc2[nH]1
T/C (dose: 6.25 mg/kg/injection, schedule: Q01DX009 (ip), vehicle: Klucel (hydroxypropylcellulose) (HPC)): 100 % of control | T/C (dose: 12.5 mg/kg/injection, schedule: Q01DX009 (ip), vehicle: Klucel (hydroxypropylcellulose) (HPC)): 103 % of control | T/C (dose: 25.0 mg/kg/injection, schedule: Q01DX009 (ip), vehicle: Klucel (hydroxypropylcellulose) (HPC)): 108 % of control | T/C (dose: 50.0 mg/kg/injection, schedule: Q01DX009 (ip), vehicle: Klucel (hydroxypropylcellulose) (HPC)): 101 % of control | T/C (dose: 100.0 mg/kg/injection, schedule: Q01DX009 (ip), vehicle: Klucel (hydroxypropylcellulose) (HPC)): 100 % of control

CC(=O)OC1COC(NC(=O)N(CCCl)N=O)C(OC(C)=O)C1OC(C)=O (stereo not drawn)
T/C (dose: 1.5 mg/kg/injection, schedule: Q01DX009 (ip), vehicle: saline with Tween-80): 111 % of control | T/C (dose: 3.0 mg/kg/injection, schedule: Q01DX009 (ip), vehicle: saline with Tween-80): 121 % of control | T/C (dose: 6.0 mg/kg/injection, schedule: Q01DX009 (ip), vehicle: saline with Tween-80): 151 % of control | T/C (dose: 12.0 mg/kg/injection, schedule: Q01DX009 (ip), vehicle: saline with Tween-80): 161 % of control | T/C (dose: 24.0 mg/kg/injection, schedule: Q01DX009 (ip), vehicle: saline with Tween-80): 272 % of control | T/C (dose: 48.0 mg/kg/injection, schedule: Q01DX009 (ip), vehicle: saline with Tween-80): 114 % of control

CC(=O)Nc1nncs1
T/C [1]: 109 % of control | T/C [2]: 90 % of control | T/C [3]: 118 % of control

C/C1=C/C2=CC(C)C[C@@H]2C(=O)[C@]2(C)C(=O)CC(C)(C)[C@H]2CC1=O (stereo partly drawn)
T/C (dose: 0.13 mg/kg/injection, schedule: Q01DX009 (ip), vehicle: Klucel (hydroxypropylcellulose) (HPC)): 100 % of control | T/C (dose: 0.25 mg/kg/injection, schedule: Q01DX009 (ip), vehicle: Klucel (hydroxypropylcellulose) (HPC)): 103 % of control | T/C (dose: 0.25 mg/kg/injection, schedule: Q01DX009 (ip), vehicle: saline with Tween-80): 99 % of control | T/C (dose: 0.5 mg/kg/injection, schedule: Q01DX009 (ip), vehicle: Klucel (hydroxypropylcellulose) (HPC)): 102 % of control | T/C (dose: 0.5 mg/kg/injection, schedule: Q01DX009 (ip), vehicle: saline with Tween-80): 108 % of control | T/C (dose: 1.0 mg/kg/injection, schedule: Q01DX009 (ip), vehicle: Klucel (hydroxypropylcellulose) (HPC)): 106 % of control | T/C (dose: 1.0 mg/kg/injection, schedule: Q01DX009 (ip), vehicle: saline with Tween-80): 99 % of control | T/C (dose: 2.0 mg/kg/injection, schedule: Q01DX009 (ip), vehicle: saline with Tween-80): 101 % of control | T/C (dose: 125.0 micrograms/kg/injection, schedule: Q01DX009 (ip), vehicle: saline + alcohol): 105 % of control | T/C (dose: 250.0 micrograms/kg/injection, schedule: Q01DX009 (ip), vehicle: saline + alcohol): 103 % of control | T/C (dose: 500.0 micrograms/kg/injection, schedule: Q01DX009 (ip), vehicle: saline + alcohol): 112 % of control | T/C (dose: 1000.0 micrograms/kg/injection, schedule: Q01DX009 (ip), vehicle: saline + alcohol): 107 % of control | T/C (dose: 2000.0 micrograms/kg/injection, schedule: Q01DX009 (ip), vehicle: saline + alcohol): 105 % of control

CN1C(=O)C2C(N(C3OC(CO)C(O)C3O)C1=O)C2(Cl)Cl (stereo not drawn)
T/C (dose: 75.0 mg/kg/injection, schedule: Q04DX003 (ip), vehicle: saline): 100 % of control | T/C (dose: 100.0 mg/kg/injection, schedule: Q04DX003 (ip), vehicle: saline): 100 % of control | T/C (dose: 150.0 mg/kg/injection, schedule: Q04DX003 (ip), vehicle: saline): 99 % of control | T/C (dose: 200.0 mg/kg/injection, schedule: Q04DX003 (ip), vehicle: saline): 99 % of control | T/C (dose: 300.0 mg/kg/injection, schedule: Q04DX003 (ip), vehicle: saline): 102 % of control | T/C (dose: 400.0 mg/kg/injection, schedule: Q04DX003 (ip), vehicle: saline): 99 % of control

O=C(O)c1ccccc1[Se](=O)(=O)O
T/C [4]: 98 % of control | T/C [5]: 100 % of control | T/C [6]: 112 % of control

Cc1cc(=O)[nH][nH]1
T/C (dose: 100.0 mg/kg/injection, schedule: Q04DX002 (ip), vehicle: saline with Tween-80): 97 % of control | T/C (dose: 200.0 mg/kg/injection, schedule: Q04DX002 (ip), vehicle: saline with Tween-80): 100 % of control | T/C (dose: 400.0 mg/kg/injection, schedule: Q04DX002 (ip), vehicle: saline with Tween-80): 94 % of control

Nc1nnc(-c2ccccc2)nn1
T/C (dose: 50.0 mg/kg/injection, schedule: Q01DX005 (ip), vehicle: Klucel + Tween-80): 91 % of control | T/C (dose: 100.0 mg/kg/injection, schedule: Q01DX005 (ip), vehicle: Klucel + Tween-80): 95 % of control | T/C (dose: 200.0 mg/kg/injection, schedule: Q01DX005 (ip), vehicle: Klucel + Tween-80): 100 % of control

O=[N+]([O-])c1ccc(Cl)nc1
T/C (dose: 22.0 mg/kg/injection, schedule: Q01DX009 (ip), vehicle: saline with Tween-80): 103 % of control | T/C (dose: 33.0 mg/kg/injection, schedule: Q01DX009 (ip), vehicle: saline with Tween-80): 97 % of control | T/C [7]: 91 % of control | T/C (dose: 75.0 mg/kg/injection, schedule: Q01DX009 (ip), vehicle: saline with Tween-80): 99 % of control | T/C [1]: 100 % of control | T/C [2]: 95 % of control | T/C [3]: 90 % of control

Cc1c2c[n+](CCCCCCCC[n+]3ccc4c(C)c5c(c(C)c4c3)c3ccccc3n5CCO)ccc2c(C)c2c1c1ccccc1n2CCO
T/C (dose: 0.78 mg/kg/injection, schedule: Q04DX003 (ip), vehicle: distilled water + Tween-80): 154 % of control | T/C (dose: 1.56 mg/kg/injection, schedule: Q04DX003 (ip), vehicle: distilled water + Tween-80): 155 % of control and 157 % of control | T/C (dose: 6.25 mg/kg/injection, schedule: Q04DX003 (ip), vehicle: distilled water + Tween-80): 155 % of control and 158 % of control | T/C (dose: 12.5 mg/kg/injection, schedule: Q04DX003 (ip), vehicle: distilled water + Tween-80): 158 % of control and 184 % of control | T/C (dose: 25.0 mg/kg/injection, schedule: Q04DX003 (ip), vehicle: distilled water + Tween-80): 184 % of control | T/C (dose: 50.0 mg/kg/injection, schedule: Q04DX003 (ip), vehicle: distilled water + Tween-80): 87 % of control

CSc1nccn2c(C)nnc12
T/C (dose: 100.0 mg/kg/injection, schedule: Q01DX001 (ip), vehicle: suspension in saline): 92 % of control | T/C (dose: 200.0 mg/kg/injection, schedule: Q01DX001 (ip), vehicle: suspension in saline): 100 % of control

COc1ccc(C(c2cc3c(cc2O)OCO3)N2CCOCC2)c(OC)c1OC (stereo not drawn)
T/C [8]: 119 % of control | T/C [9]: 109 % of control | T/C (dose: 240.0 mg/kg/injection, schedule: Q01DX005 (ip), vehicle: saline with Tween-80): 115 % of control

CN1C(=O)N(C)C(=O)C(Nc2ccc([N+](=O)[O-])cc2)(SCCO)C1=O
T/C (dose: 50.0 mg/kg/injection, schedule: Q01DX005 (ip), vehicle: saline with Tween-80): 100 % of control | T/C (dose: 100.0 mg/kg/injection, schedule: Q01DX005 (ip), vehicle: saline with Tween-80): 104 % of control | T/C (dose: 200.0 mg/kg/injection, schedule: Q01DX005 (ip), vehicle: saline with Tween-80): 104 % of control

Cn1c(=O)oc2ccc(Br)cc21
T/C (dose: 100.0 mg/kg/injection, schedule: Q04DX002 (ip), vehicle: Klucel (hydroxypropylcellulose) (HPC)): 104 % of control | T/C (dose: 200.0 mg/kg/injection, schedule: Q04DX002 (ip), vehicle: Klucel (hydroxypropylcellulose) (HPC)): 104 % of control | T/C (dose: 400.0 mg/kg/injection, schedule: Q04DX002 (ip), vehicle: Klucel (hydroxypropylcellulose) (HPC)): 100 % of control

CCOC(=O)NN(C(=O)OCC)/C(C(=O)OCC)=C(/C)N
T/C [4]: 97 % of control and 102 % of control and 93 % of control | T/C [5]: 97 % of control and 104 % of control | T/C [6]: 98 % of control and 89 % of control

COc1cc(O)c(O)c(C(C)(C)C)c1
T/C (dose: 3.75 mg/kg/injection, schedule: Q01DX005 (ip), vehicle: saline with Tween-80): 103 % of control | T/C (dose: 7.5 mg/kg/injection, schedule: Q01DX005 (ip), vehicle: saline with Tween-80): 105 % of control | T/C (dose: 15.0 mg/kg/injection, schedule: Q01DX005 (ip), vehicle: saline with Tween-80): 108 % of control | T/C (dose: 30.0 mg/kg/injection, schedule: Q01DX005 (ip), vehicle: saline with Tween-80): 116 % of control | T/C [8]: 107 % of control | T/C [9]: 95 % of control

CN(/N=C/c1ccc2c(c1)OCO2)C(=O)c1ccccc1N
T/C [7]: 108 % of control | T/C (dose: 100.0 mg/kg/injection, schedule: Q01DX009 (ip), vehicle: saline with Tween-80): 114 % of control | T/C (dose: 200.0 mg/kg/injection, schedule: Q01DX009 (ip), vehicle: saline with Tween-80): 116 % of control
